Data from PubChem BioAssay AID330 (DTP/NCI, 2004).
Values joined by “and” are separate entries in the source; they are usually repeats but may differ in a detail not shown here. Equal entries are not always repeated. Inconclusive results and toxic doses are left out. Peptide text beside a SMILES is read from it. * marks the point of attachment. Cbz = O=C(OCc1ccccc1)*; OBn = c1ccc(CO*)cc1

System: P388 leukemia ip, CD2F1 mice, survival T/C
Assay: NCI In Vivo Anticancer Drug Screen. Data for tumor model P388 Leukemia (intraperitoneal) in CD2F1 (CDF1) mice
Details: endpoint: median survival time, higher = longer survival
Method in brief: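 Mice carrying the transplanted tumor received test compound or vehicle. Survival was recorded in each group, and the value is the treated-group measurement divided by that of the vehicle-treated control group.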

[1] = dose: 12.5 mg/kg/injection, schedule: Q04DX003 (ip), vehicle: saline
[2] = dose: 6.25 mg/kg/injection, schedule: Q01DX005 (ip), vehicle: saline with Tween-80
[3] = dose: 12.5 mg/kg/injection, schedule: Q01DX005 (ip), vehicle: saline with Tween-80
[4] = dose: 200.0 mg/kg/injection, schedule: Q01DX005 (ip), vehicle: saline with Tween-80
[5] = dose: 50.0 mg/kg/injection, schedule: Q01DX009 (ip), vehicle: saline with Tween-80
[6] = dose: 100.0 mg/kg/injection, schedule: Q01DX009 (ip), vehicle: saline with Tween-80
[7] = dose: 200.0 mg/kg/injection, schedule: Q01DX009 (ip), vehicle: saline with Tween-80
[8] = dose: 50.0 mg/kg/injection, schedule: Q01DX005 (ip), vehicle: saline with Tween-80
[9] = dose: 100.0 mg/kg/injection, schedule: Q01DX005 (ip), vehicle: saline with Tween-80
[10] = dose: 50.0 mg/kg/injection, schedule: Q01DX005 (ip), vehicle: Klucel (hydroxypropylcellulose) (HPC)
[11] = dose: 100.0 mg/kg/injection, schedule: Q01DX005 (ip), vehicle: Klucel (hydroxypropylcellulose) (HPC)
[12] = dose: 200.0 mg/kg/injection, schedule: Q01DX005 (ip), vehicle: Klucel (hydroxypropylcellulose) (HPC)
[13] = dose: 25.0 mg/kg/injection, schedule: Q01DX005 (ip), vehicle: saline with Tween-80

For N=C(N)c1ccc(NC(=O)c2cc3ccc(C(=N)N)cc3o2)cc1, the T/C [1] was 101 % of control, the T/C (dose: 25.0 mg/kg/injection, schedule: Q04DX003 (ip), vehicle: saline) was 101 % of control and the T/C (dose: 50.0 mg/kg/injection, schedule: Q04DX003 (ip), vehicle: saline) was 102 % of control.
For COc1cc(C2c3cc4c(cc3CC3COC(=O)N32)OCO4)cc(OC)c1OC (stereo not drawn), the T/C (dose: 3.75 mg/kg/injection, schedule: Q01DX005 (ip), vehicle: Klucel (hydroxypropylcellulose) (HPC)) was 98 % of control and 92 % of control, the T/C (dose: 7.5 mg/kg/injection, schedule: Q01DX005 (ip), vehicle: Klucel (hydroxypropylcellulose) (HPC)) was 88 % of control and 91 % of control and 92 % of control and the T/C (dose: 15.0 mg/kg/injection, schedule: Q01DX005 (ip), vehicle: Klucel (hydroxypropylcellulose) (HPC)) was 92 % of control (2×) and 97 % of control.
In the case of CC(C)=CCCC(C)(OC1OC(COC2OC(CO)C(O)C(O)C2O)C(O)C(O)C1O)C1CCC2(C)C1C(O)CC1C3(C)CCC(OC4OC(CO)C(O)C(O)C4OC4OC(CO)C(O)C(O)C4O)C(C)(C)C3CCC12C (stereo not drawn), the T/C (dose: 2.0 mg/kg/injection, schedule: Q01DX009 (ip), vehicle: Klucel (hydroxypropylcellulose) (HPC)) is reported as 102 % of control, the T/C (dose: 4.0 mg/kg/injection, schedule: Q01DX009 (ip), vehicle: Klucel (hydroxypropylcellulose) (HPC)) is reported as 95 % of control and the T/C (dose: 8.0 mg/kg/injection, schedule: Q01DX009 (ip), vehicle: Klucel (hydroxypropylcellulose) (HPC)) is reported as 98 % of control. For the same compound, the T/C (dose: 16.0 mg/kg/injection, schedule: Q01DX009 (ip), vehicle: Klucel (hydroxypropylcellulose) (HPC)) was 93 % of control and the T/C (dose: 32.0 mg/kg/injection, schedule: Q01DX009 (ip), vehicle: Klucel (hydroxypropylcellulose) (HPC)) was 88 % of control.
In the case of Cc1ccc(C(F)(F)F)cc1N(O)C(C)(C)C, the T/C (dose: 50.0 mg/kg/injection, schedule: Q04DX003 (ip), vehicle: saline with Tween-80) is reported as 95 % of control, the T/C (dose: 100.0 mg/kg/injection, schedule: Q04DX003 (ip), vehicle: saline with Tween-80) is reported as 101 % of control and the T/C (dose: 200.0 mg/kg/injection, schedule: Q04DX003 (ip), vehicle: saline with Tween-80) is reported as 118 % of control.
CCC1(C)CC(=O)NC(=O)C1 was tested, and the T/C (dose: 2.5 mg/kg/injection, schedule: Q01DX009 (ip), vehicle: saline with Tween-80) was 95 % of control, the T/C (dose: 5.0 mg/kg/injection, schedule: Q01DX009 (ip), vehicle: saline with Tween-80) was 95 % of control and the T/C (dose: 10.0 mg/kg/injection, schedule: Q01DX009 (ip), vehicle: saline with Tween-80) was 86 % of control.
In the case of [N-]=[N+]=Nc1ccccc1C(=O)NCCNC(=O)c1ccccc1N=[N+]=[N-], the T/C [2] is reported as 94 % of control, the T/C [3] is reported as 91 % of control and the T/C [4] is reported as 87 % of control.
In the case of COc1ccc(C2NC(=O)NC2=O)cc1 (stereo not drawn), the T/C (dose: 25.0 mg/kg/injection, schedule: Q01DX009 (ip), vehicle: saline with Tween-80) is reported as 100 % of control, the T/C [5] is reported as 91 % of control and the T/C [6] is reported as 93 % of control. For the same compound, the T/C [7] was 94 % of control.
With O=[N+]([O-])c1ccc(Cl)cc1C(Nc1nncs1)Nc1nncs1 the T/C (dose: 60.0 mg/kg/injection, schedule: Q01DX005 (ip), vehicle: Klucel (hydroxypropylcellulose) (HPC)) was 107 % of control and the T/C (dose: 120.0 mg/kg/injection, schedule: Q01DX005 (ip), vehicle: Klucel (hydroxypropylcellulose) (HPC)) was 106 % of control.
With Clc1ccc2c(Cl)ncnc2c1 the T/C [5] was 104 % of control, the T/C [6] was 100 % of control and the T/C [7] was 90 % of control.
In the case of COCCCN1CNC(=S)NC1, the T/C [8] is reported as 101 % of control, the T/C [9] is reported as 100 % of control and the T/C [4] is reported as 101 % of control.
With O=C(NN1C(=O)C2=Cc3ccccc3OC2=NC1c1ccccc1O)c1ccncc1 (stereo not drawn) the T/C (dose: 100.0 mg/kg/injection, schedule: Q01DX001 (ip), vehicle: saline) was 96 % of control, the T/C (dose: 200.0 mg/kg/injection, schedule: Q01DX001 (ip), vehicle: saline) was 98 % of control and the T/C (dose: 400.0 mg/kg/injection, schedule: Q01DX001 (ip), vehicle: saline) was 94 % of control.
In the case of COc1ccc2nc(C)c3c(c2c1)C(=O)N(CCC[N+]1([O-])CC[N+]([O-])(CCCN2C(=O)c4c(c5cc(OC)ccc5[n+]([O-])c4C)C2=O)CC1)C3=O (stereo not drawn), the T/C (dose: 60.0 mg/kg/injection, schedule: Q01DX005 (ip), vehicle: saline with Tween-80) is reported as 87 % of control, the T/C (dose: 120.0 mg/kg/injection, schedule: Q01DX005 (ip), vehicle: saline with Tween-80) is reported as 89 % of control and the T/C (dose: 240.0 mg/kg/injection, schedule: Q01DX005 (ip), vehicle: saline with Tween-80) is reported as 92 % of control.
For COC(=O)C1=C(C(=O)OC)C2(c3ccccc3-c3ccccc32)C2C=CC=CN12 (stereo not drawn), the T/C [10] was 100 % of control, the T/C [11] was 101 % of control and the T/C [12] was 100 % of control.
NC(=O)c1c(Cl)nc2sccn12 was tested, and the T/C (dose: 25.0 mg/kg/injection, schedule: Q01DX001 (ip), vehicle: saline with Tween-80) was 107 % of control, the T/C (dose: 50.0 mg/kg/injection, schedule: Q01DX001 (ip), vehicle: saline with Tween-80) was 104 % of control and the T/C (dose: 100.0 mg/kg/injection, schedule: Q01DX001 (ip), vehicle: saline with Tween-80) was 101 % of control and 112 % of control.
For O=S(=O)(CCl)OCCCCOS(=O)(=O)CCl, the T/C (dose: 25.0 mg/kg/injection, schedule: Q04DX003 (ip), vehicle: saline sonified) was 109 % of control, the T/C (dose: 50.0 mg/kg/injection, schedule: Q04DX003 (ip), vehicle: saline sonified) was 104 % of control and the T/C (dose: 66.0 mg/kg/injection, schedule: Q01DX009 (ip), vehicle: saline) was 120 % of control. For the same compound, the T/C (dose: 100.0 mg/kg/injection, schedule: Q04DX003 (ip), vehicle: saline sonified) was 118 % of control and the T/C (dose: 150.0 mg/kg/injection, schedule: Q01DX009 (ip), vehicle: saline) was 150 % of control.
For COCCC(=O)SCc1ccccc1, the T/C [8] was 103 % of control, the T/C [9] was 96 % of control and the T/C [4] was 107 % of control.
With COc1cc(/C=N/NC(=O)COCC(=O)N/N=C/c2ccc(O)cc2OC)ccc1O the T/C [2] was 103 % of control, the T/C [3] was 101 % of control and the T/C [13] was 105 % of control.
For CC(C)C(NC(=O)C(Cc1ccccc1)NC(=O)OCc1ccccc1)C(=O)OCc1ccccc1 (stereo not drawn) (Cbz-Phe-Val-OBn; configuration not given here), the T/C [3] was 93 % of control, the T/C [13] was 100 % of control and the T/C [8] was 91 % of control and 97 % of control. The T/C [4] was 92 % of control.
In the case of COc1c(Br)c2c(c([N+](=O)[O-])c1OC)C(=O)OC2C1c2c(cc3c(c2OC)OCO3)CCN1C (stereo not drawn), the T/C (dose: 25.0 mg/kg/injection, schedule: Q01DX005 (ip), vehicle: Klucel (hydroxypropylcellulose) (HPC)) is reported as 91 % of control, the T/C [10] is reported as 104 % of control and the T/C [11] is reported as 104 % of control. For the same compound, the T/C [12] was 103 % of control.
CCC/C=C\C=C\C(=O)OC1C2C=C3CC(C(C)O)OC(=O)CC(O)CC4CC(OC(C)=O)C(C)(C)C(O)(CC5C/C(=C\C(=O)OC)CC(/C=C/C(C)(C)C16OC(=O)C(O)C32O6)O5)O4 (stereo not drawn) was tested, and the T/C (dose: 0.03 mg/kg/injection, schedule: Q01DX009 (ip), vehicle: saline + alcohol) was 163 % of control and the T/C (dose: 30.0 micrograms/kg/injection, schedule: Q01DX009 (ip), vehicle: saline + alcohol) was 153 % of control.
With CC1CCC(C(C)C)C(NC(=O)c2ccc[n+](C)c2)C1 (stereo not drawn) the T/C (dose: 25.0 mg/kg/injection, schedule: Q04DX002 (ip), vehicle: saline) was 97 % of control and the T/C (dose: 50.0 mg/kg/injection, schedule: Q04DX002 (ip), vehicle: saline) was 97 % of control.
With COC1=CC(=Nc2cc(Br)c(O)c(Br)c2)C=CC1=O the T/C (dose: 6.25 mg/kg/injection, schedule: Q01DX005 (ip), vehicle: saline) was 105 % of control, the T/C (dose: 12.5 mg/kg/injection, schedule: Q01DX005 (ip), vehicle: saline) was 108 % of control and the T/C (dose: 25.0 mg/kg/injection, schedule: Q01DX005 (ip), vehicle: saline) was 100 % of control. The T/C [8] was 95 % of control.
CC1(C)CN(c2ccccc2)N(CO)C1=O was tested, and the T/C (dose: 6.25 mg/kg/injection, schedule: Q04DX003 (ip), vehicle: saline) was 101 % of control and the T/C [1] was 109 % of control.
